In ChEMBL document CHEMBL3991601, “The target landscape of clinical kinase drugs” (Science, 2017):
Activity calls are given as the source filed them. For most assays here, no stated cut-off is given here; in the data, actives have a measured Kd and inactives only a lower limit.

What was measured:
[1] = target: Tyrosine-protein kinase Fyn (Homo sapiens, UniProt P06241)
[2] = target: T1, Mitogen-activated protein kinase kinase kinase 5 (Homo sapiens, UniProt Q99683)
T1 sequence (Q99683 whole entry): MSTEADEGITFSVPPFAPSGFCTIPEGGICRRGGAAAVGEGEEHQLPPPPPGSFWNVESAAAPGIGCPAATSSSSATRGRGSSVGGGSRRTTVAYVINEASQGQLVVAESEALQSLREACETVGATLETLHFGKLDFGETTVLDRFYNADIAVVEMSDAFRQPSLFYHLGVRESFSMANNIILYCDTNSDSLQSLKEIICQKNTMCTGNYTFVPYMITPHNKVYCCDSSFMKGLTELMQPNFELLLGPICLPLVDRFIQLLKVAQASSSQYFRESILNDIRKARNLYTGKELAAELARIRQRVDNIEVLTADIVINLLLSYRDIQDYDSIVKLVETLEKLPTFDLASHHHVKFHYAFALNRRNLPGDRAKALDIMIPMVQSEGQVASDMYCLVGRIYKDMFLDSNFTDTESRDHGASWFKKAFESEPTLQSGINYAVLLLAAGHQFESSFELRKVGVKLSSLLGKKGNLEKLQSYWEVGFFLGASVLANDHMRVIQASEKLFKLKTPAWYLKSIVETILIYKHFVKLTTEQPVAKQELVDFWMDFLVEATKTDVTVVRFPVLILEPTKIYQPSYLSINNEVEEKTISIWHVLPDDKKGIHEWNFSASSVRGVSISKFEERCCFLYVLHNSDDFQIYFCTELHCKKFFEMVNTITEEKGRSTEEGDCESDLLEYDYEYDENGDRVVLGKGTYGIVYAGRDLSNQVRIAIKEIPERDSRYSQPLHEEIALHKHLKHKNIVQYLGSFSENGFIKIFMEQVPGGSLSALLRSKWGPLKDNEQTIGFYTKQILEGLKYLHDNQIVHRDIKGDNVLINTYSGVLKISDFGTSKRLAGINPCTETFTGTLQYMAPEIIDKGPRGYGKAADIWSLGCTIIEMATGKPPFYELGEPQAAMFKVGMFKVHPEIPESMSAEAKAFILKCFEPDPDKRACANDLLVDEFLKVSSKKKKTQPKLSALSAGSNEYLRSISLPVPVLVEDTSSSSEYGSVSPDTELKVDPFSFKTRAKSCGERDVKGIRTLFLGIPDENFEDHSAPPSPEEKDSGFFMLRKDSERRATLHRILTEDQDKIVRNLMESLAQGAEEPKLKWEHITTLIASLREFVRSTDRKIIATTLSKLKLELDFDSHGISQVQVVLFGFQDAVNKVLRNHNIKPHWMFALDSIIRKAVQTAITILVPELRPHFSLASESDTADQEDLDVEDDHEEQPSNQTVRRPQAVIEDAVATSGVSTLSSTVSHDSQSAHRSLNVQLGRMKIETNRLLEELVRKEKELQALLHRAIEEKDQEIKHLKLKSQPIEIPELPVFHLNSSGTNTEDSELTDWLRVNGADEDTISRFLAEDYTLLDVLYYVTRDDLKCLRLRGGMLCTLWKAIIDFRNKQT

[3] = target: AP2-associated protein kinase 1 (Homo sapiens, UniProt Q2M2I8)
Chain of AP2-associated protein kinase 1 (Q2M2I8 whole entry): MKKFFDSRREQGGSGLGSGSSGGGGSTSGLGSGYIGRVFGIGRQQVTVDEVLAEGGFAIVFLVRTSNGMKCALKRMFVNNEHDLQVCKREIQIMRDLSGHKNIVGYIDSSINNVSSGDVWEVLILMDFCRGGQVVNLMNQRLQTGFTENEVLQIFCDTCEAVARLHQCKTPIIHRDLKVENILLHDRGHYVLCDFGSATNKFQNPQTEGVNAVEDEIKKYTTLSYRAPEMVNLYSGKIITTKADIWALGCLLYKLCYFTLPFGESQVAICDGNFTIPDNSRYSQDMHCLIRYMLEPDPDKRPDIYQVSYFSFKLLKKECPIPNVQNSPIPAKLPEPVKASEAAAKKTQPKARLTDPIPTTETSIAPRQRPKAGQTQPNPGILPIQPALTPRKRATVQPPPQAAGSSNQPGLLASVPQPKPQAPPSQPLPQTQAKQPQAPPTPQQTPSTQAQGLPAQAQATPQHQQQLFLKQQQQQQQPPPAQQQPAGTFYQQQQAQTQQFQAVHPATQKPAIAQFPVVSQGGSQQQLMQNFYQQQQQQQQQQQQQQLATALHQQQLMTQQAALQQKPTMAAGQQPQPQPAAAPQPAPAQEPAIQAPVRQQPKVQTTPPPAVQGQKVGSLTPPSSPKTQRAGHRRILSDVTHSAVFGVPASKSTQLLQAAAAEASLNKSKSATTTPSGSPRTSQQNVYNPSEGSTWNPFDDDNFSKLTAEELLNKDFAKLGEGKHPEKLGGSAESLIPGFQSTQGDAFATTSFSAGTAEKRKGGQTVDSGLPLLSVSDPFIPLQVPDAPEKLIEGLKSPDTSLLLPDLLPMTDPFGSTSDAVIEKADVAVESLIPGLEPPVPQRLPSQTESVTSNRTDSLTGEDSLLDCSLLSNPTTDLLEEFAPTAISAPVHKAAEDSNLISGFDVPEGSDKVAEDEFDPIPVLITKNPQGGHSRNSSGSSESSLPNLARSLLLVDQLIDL

[4] = target: cAMP-dependent protein kinase catalytic subunit alpha (Homo sapiens, UniProt P17612)
[5] = target: T2, Bone morphogenetic protein receptor type-2 (Homo sapiens, UniProt Q13873)
T2 sequence (Q13873 whole entry): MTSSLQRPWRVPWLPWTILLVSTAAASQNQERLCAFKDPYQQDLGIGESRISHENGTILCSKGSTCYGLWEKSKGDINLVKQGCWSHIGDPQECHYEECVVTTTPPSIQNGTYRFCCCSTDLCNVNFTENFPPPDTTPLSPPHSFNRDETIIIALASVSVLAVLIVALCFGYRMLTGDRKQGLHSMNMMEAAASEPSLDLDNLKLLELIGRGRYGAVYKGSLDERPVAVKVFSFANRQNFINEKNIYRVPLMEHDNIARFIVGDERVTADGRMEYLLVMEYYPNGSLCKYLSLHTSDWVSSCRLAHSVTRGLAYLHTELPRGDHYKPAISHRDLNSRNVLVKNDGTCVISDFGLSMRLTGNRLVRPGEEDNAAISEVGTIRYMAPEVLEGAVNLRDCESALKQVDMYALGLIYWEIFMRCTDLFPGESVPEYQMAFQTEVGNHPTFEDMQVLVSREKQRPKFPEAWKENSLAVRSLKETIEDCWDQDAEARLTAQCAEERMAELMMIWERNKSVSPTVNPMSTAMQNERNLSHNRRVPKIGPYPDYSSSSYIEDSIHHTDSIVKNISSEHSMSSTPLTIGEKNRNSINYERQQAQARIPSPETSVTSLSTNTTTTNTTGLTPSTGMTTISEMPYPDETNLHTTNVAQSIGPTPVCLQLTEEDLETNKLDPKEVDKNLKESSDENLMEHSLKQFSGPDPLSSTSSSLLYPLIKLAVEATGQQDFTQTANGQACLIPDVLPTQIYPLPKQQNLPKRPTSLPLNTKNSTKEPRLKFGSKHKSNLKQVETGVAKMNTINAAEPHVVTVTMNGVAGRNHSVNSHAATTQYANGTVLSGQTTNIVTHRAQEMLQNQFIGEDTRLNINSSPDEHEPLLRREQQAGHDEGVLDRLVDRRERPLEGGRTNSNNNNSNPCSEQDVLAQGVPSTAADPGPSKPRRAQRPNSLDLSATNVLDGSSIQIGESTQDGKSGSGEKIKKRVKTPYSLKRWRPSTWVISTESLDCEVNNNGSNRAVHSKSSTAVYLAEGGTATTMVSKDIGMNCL

[6] = target: Elongation factor Tu, mitochondrial (Homo sapiens, UniProt P49411)
[7] = target: Serine/threonine-protein kinase/endoribonuclease IRE2 (Homo sapiens, UniProt Q76MJ5)
Chain of Serine/threonine-protein kinase/endoribonuclease IRE2 (Q76MJ5 whole entry): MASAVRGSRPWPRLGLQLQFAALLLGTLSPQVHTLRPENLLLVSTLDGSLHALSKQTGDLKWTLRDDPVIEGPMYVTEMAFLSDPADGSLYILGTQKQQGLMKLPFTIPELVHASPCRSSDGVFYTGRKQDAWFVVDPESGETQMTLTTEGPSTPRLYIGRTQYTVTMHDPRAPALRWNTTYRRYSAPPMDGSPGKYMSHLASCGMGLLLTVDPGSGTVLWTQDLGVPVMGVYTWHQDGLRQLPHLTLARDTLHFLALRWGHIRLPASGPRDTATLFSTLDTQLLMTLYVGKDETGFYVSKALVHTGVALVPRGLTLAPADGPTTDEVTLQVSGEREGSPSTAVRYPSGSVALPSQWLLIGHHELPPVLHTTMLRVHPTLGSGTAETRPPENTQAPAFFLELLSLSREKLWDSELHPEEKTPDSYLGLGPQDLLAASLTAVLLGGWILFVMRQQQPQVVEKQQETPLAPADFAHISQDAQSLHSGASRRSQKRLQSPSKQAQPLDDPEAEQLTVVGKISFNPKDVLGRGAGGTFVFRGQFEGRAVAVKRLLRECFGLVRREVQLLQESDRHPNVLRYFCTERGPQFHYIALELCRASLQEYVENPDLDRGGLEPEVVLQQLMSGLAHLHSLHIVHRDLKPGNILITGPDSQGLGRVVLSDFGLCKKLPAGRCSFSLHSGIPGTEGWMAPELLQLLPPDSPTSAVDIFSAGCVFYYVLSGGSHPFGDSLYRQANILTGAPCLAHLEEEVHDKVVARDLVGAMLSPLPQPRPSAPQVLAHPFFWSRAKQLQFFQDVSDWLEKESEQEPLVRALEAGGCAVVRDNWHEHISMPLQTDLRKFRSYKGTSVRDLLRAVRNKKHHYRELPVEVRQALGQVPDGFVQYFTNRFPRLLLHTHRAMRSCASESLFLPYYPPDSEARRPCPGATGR

[8] = target: Interleukin-1 receptor-associated kinase 1 (Homo sapiens, UniProt P51617)
Chain of Interleukin-1 receptor-associated kinase 1 (P51617 whole entry): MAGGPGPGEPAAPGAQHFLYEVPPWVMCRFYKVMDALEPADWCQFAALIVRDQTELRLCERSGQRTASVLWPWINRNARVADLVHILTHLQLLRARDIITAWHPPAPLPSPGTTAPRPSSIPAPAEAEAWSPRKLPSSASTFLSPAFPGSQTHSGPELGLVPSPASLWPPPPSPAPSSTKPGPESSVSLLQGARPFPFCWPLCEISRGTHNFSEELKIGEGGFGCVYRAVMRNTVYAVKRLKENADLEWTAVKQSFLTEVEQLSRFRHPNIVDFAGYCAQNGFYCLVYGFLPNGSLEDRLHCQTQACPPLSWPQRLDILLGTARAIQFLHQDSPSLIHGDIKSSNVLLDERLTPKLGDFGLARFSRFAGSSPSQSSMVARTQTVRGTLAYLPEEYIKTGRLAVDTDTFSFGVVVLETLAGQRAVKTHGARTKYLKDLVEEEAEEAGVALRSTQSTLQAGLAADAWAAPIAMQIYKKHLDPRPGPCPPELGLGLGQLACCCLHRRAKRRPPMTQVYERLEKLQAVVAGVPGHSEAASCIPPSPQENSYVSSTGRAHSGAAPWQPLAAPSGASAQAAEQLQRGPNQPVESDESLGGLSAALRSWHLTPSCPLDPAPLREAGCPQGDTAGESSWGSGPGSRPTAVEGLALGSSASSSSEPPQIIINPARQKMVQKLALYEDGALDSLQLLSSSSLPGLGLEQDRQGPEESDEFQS

Chain of Tyrosine-protein kinase Fyn (P06241 whole entry): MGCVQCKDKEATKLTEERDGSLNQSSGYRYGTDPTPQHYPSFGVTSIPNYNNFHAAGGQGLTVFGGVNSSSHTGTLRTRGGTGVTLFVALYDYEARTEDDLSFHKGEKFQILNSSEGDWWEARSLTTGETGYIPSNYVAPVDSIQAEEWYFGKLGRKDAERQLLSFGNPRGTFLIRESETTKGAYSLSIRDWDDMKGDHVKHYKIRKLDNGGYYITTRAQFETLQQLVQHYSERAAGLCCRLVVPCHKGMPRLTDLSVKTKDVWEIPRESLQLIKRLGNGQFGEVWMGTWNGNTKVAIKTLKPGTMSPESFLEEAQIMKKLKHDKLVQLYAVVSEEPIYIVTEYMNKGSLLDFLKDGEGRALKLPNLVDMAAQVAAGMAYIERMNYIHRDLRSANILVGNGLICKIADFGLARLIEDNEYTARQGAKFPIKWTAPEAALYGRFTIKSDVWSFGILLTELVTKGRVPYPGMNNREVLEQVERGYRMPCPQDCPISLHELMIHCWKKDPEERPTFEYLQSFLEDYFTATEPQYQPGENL

Row | Kd [1] | Kd [2] | Kd [3] | Kd [4] | Kd [5] | Kd [6] | Kd [7] | Kd [8] | SMILES
1 | > 30 µM (inactive) | > 30 µM (inactive) | > 30 µM (inactive) | > 30 µM (inactive) | > 30 µM (inactive) | > 30 µM (inactive) | > 30 µM (inactive) | > 30 µM (inactive) | NC(=O)c1ccc(N(C(N)=O)c2c(F)cccc2F)nc1-c1ccc(F)cc1F [VX-702]
2 | > 30 µM (inactive) | > 30 µM (inactive) | 2.61 µM (active) | > 30 µM (inactive) | > 30 µM (inactive) | > 30 µM (inactive) | > 30 µM (inactive) | > 30 µM (inactive) | c1cc(OCCN2CCCCC2)cc(-c2n[nH]c3ccc(-c4nc[nH]n4)cc23)c1 [CC-401]

Row | SMILES | Kd [1] | Kd [2] | Kd [3] | Kd [4] | Kd [5] | Kd [6] | Kd [7] | Kd [8]
3 | CN1CCN(c2nc(C3=C(c4c[nH]c5ccccc45)C(=O)NC3=O)c3ccccc3n2)CC1 [SOTRASTAURIN] | > 30 µM (inactive) | > 30 µM (inactive) | > 30 µM (inactive) | > 30 µM (inactive) | > 30 µM (inactive) | > 30 µM (inactive) | > 30 µM (inactive) | > 30 µM (inactive)
